Like-named read-outs stand apart in the source and are kept apart here.
How the values were obtained:
[1] = system: Key Broadleaf Weed and Crop Species; assay: Post-Emergent Test II: postemergent herbicidal activity, visual rating after 14 d (Table 7); assay type: in vivo; details: post-emergence, 336 h; for pest or weed control at 35 g/ha: 35 g ai/ha; for pest or weed control at 70 g/ha: 70 g ai/ha; for pest or weed control at 140 g/ha: 140 g ai/ha
Method in brief: (§1)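 Visual 0-100% injury score (0 no injury, 100 complete kill) at 14 d post-spray, relative to untreated plants. Seedlings at 1st-2nd true leaf stage; track sprayer at 187 L/ha, highest rate plus ½×, ¼×, ⅛×, 1/16× serial dilutions. Subirrigated after treatment.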

[2] = system: Key Grass and Sedge Weeds as well as Grass Crops; assay: Post-Emergent Test II: postemergent herbicidal activity, visual rating after 14 d (Table 8); assay type: in vivo; details: post-emergence, 336 h; for pest or weed control at 35 g/ha: 35 g ai/ha; for pest or weed control at 70 g/ha: 70 g ai/ha; for pest or weed control at 140 g/ha: 140 g ai/ha
Method in brief: as §1

[3] = lambsquarters (Chenopodium album), read-out: Visual Growth Reduction (%) 14 Days After Application CHEAL
[4] = oilseed rape, canola (Brassica napus), read-out: Visual Growth Reduction (%) 14 Days After Application BRSNN
[5] = redroot pigweed (Amaranthus retroflexus), read-out: Visual Growth Reduction (%) 14 Days After Application AMARE
[6] = sunflower (Helianthus annuus), read-out: Visual Growth Reduction (%) 14 Days After Application HELAN
[7] = velvetleaf (Abutilon theophrasti), read-out: Visual Growth Reduction (%) 14 Days After Application ABUTH
[8] = wild poinsettia (Euphorbia heterophylla), read-out: Visual Growth Reduction (%) 14 Days After Application EPHHL
[9] = barnyardgrass (Echinochloa crus-galli), read-out: Visual Growth Reduction (%) 14 Days After Application ECHCG
[10] = giant foxtail (Setaria faberi), read-out: Visual Growth Reduction (%) 14 Days After Application SETFA
[11] = maize, corn (Zea mays), read-out: Visual Growth Reduction (%) 14 Days After Application ZEAMX
[12] = rice (Oryza sativa), read-out: Visual Growth Reduction (%) 14 Days After Application ORYSA
[13] = wheat, spring (Triticum aestivum), read-out: Visual Growth Reduction (%) 14 Days After Application TRZAS
[14] = yellow nutsedge (Cyperus esculentus), read-out: Visual Growth Reduction (%) 14 Days After Application CYPES

| Compound | pest or weed control at 35 g/ha [1, 3] [%] | pest or weed control at 70 g/ha [1, 3] [%] | pest or weed control at 140 g/ha [1, 3] [%] | pest or weed control at 35 g/ha [1, 4] [%] | pest or weed control at 70 g/ha [1, 4] [%] | pest or weed control at 140 g/ha [1, 4] [%] | pest or weed control at 35 g/ha [1, 5] [%] | pest or weed control at 70 g/ha [1, 5] [%] | pest or weed control at 140 g/ha [1, 5] [%] | pest or weed control at 35 g/ha [1, 6] [%] | pest or weed control at 70 g/ha [1, 6] [%] | pest or weed control at 140 g/ha [1, 6] [%] | pest or weed control at 35 g/ha [1, 7] [%] | pest or weed control at 70 g/ha [1, 7] [%] | pest or weed control at 140 g/ha [1, 7] [%] | pest or weed control at 35 g/ha [1, 8] [%] | pest or weed control at 70 g/ha [1, 8] [%] | pest or weed control at 140 g/ha [1, 8] [%] | pest or weed control at 35 g/ha [2, 9] [%] | pest or weed control at 70 g/ha [2, 9] [%] | other results |
| --- | --- | --- | --- | --- | --- | --- | --- | --- | --- | --- | --- | --- | --- | --- | --- | --- | --- | --- | --- | --- | --- |
| COC(=O)c1nc(-c2cc3c(cc2OC)OC(F)(F)O3)cc(N)c1Cl [Compound 38] | 0 to 29 | 0 to 29 | 0 to 29 | 0 to 29 | 0 to 29 | 0 to 29 | 0 to 29 | 60 to 74 | 60 to 74 | 0 to 29 | 0 to 29 | 60 to 74 | 0 to 29 | 0 to 29 | 0 to 29 | 0 to 29 | 0 to 29 | 0 to 29 | 0 to 29 | 0 to 29 | pest or weed control at 140 g/ha [2, 9]: 0 to 29%; pest or weed control at 35 g/ha [2, 10]: 0 to 29%; pest or weed control at 70 g/ha [2, 10]: 0 to 29%; pest or weed control at 140 g/ha [2, 10]: 0 to 29%; pest or weed control at 35 g/ha [2, 11]: 0 to 29%; pest or weed control at 70 g/ha [2, 11]: 0 to 29%; pest or weed control at 140 g/ha [2, 11]: 0 to 29%; pest or weed control at 35 g/ha [2, 12]: 0 to 29%; pest or weed control at 70 g/ha [2, 12]: 0 to 29%; pest or weed control at 140 g/ha [2, 12]: 0 to 29%; pest or weed control at 35 g/ha [2, 13]: 0 to 29%; pest or weed control at 70 g/ha [2, 13]: 0 to 29%; pest or weed control at 140 g/ha [2, 13]: 0 to 29%; pest or weed control at 35 g/ha [2, 14]: 0 to 29%; pest or weed control at 70 g/ha [2, 14]: 0 to 29%; pest or weed control at 140 g/ha [2, 14]: 0 to 29% |
| COC(=O)c1nc(-c2ccc3c(c2)OC(C)O3)c(F)c(N)c1Cl (stereo not drawn) [Compound 20] | 0 to 29 | 30 to 44 | 75 to 84 | 0 to 29 | 0 to 29 | 30 to 44 | 60 to 74 | 95 to 100 | 95 to 100 | 60 to 74 | 75 to 84 | 85 to 94 | 30 to 44 | 60 to 74 | 95 to 100 | 45 to 59 | 85 to 94 | 85 to 94 | 60 to 74 | 75 to 84 | pest or weed control at 140 g/ha [2, 9]: 85 to 94%; pest or weed control at 35 g/ha [2, 10]: 45 to 59%; pest or weed control at 70 g/ha [2, 10]: 75 to 84%; pest or weed control at 140 g/ha [2, 10]: 85 to 94%; pest or weed control at 35 g/ha [2, 11]: 30 to 44%; pest or weed control at 70 g/ha [2, 11]: 45 to 59%; pest or weed control at 140 g/ha [2, 11]: 60 to 74%; pest or weed control at 35 g/ha [2, 12]: 0 to 29%; pest or weed control at 70 g/ha [2, 12]: 30 to 44%; pest or weed control at 140 g/ha [2, 12]: 30 to 44%; pest or weed control at 35 g/ha [2, 13]: 0 to 29%; pest or weed control at 70 g/ha [2, 13]: 0 to 29%; pest or weed control at 140 g/ha [2, 13]: 0 to 29%; pest or weed control at 35 g/ha [2, 14]: 45 to 59%; pest or weed control at 70 g/ha [2, 14]: 75 to 84%; pest or weed control at 140 g/ha [2, 14]: 85 to 94% |

From patent publication US9149038B2, “4-amino-6-(heterocyclic)picolinates and 6-amino-2-(heterocyclic)pyrimidine-4-carboxylates and their use as herbicides” (Dow AgroSciences LLC, priority 2013, dated 2015)
